1 compound from patent US10702512B2, “Treatment of debilitating fatigue” (A. CARLSSON RESEARCH AB, priority 2015, dated 2020) can be followed below.

The subject of data set [1] is ME/CFS patients. Description: mental fatigue self-assessment questionnaire (MFS) total score, phase II clinical study. Format: in vivo, human. On the procedure:
As used herein, the term “MFS” refers to a the mental fatigue self-assessment questionnaire (Johansson B et al (2010) Brain Injury 2010; 24:2-12). […] Circular coated tablets for oral use of 15 mg and matching placebos was used. The tablets were administered by research nurses at the study site. The tablets were circular coated tablets for oral use containing 15 mg OSU6162. Matching placebos were used. The start dose was 15 mg OSU6162 twice daily (before breakfast and lunch) during 1 week with dose increase up to 30 mg twice daily during the following week. Efficacy was measured according to ratings using the self-assessment questionnaire for mental fatigue and related symptoms (MFS) after neurological disorders and injuries (Johansson et al, supra). Another primary endpoint was the result of the rating by the Clinical Global Impression of Change (Guy, supra), which rating was made by the doctor in charge of the patient. CGI-C scores range from 1 (very much improved) through to 7 (very much worse). To examine the effect of treatment and concomitant use of an antidepressant, antidepressant was included as a fixed factor in the analyses. […] Outcome targets FF, MFS and BDI were measured.

A further data set is described as follows: water solubility. Format: physicochemical. The settings on record: hydrochloride, white powder. On the procedure: The investigated substance is the S enantiomer with the chemical name (S)-3-[3-(methylsulfonyl) phenyl]-1-propylpiperidine hydrochloride, referred herein to as OSU6162. The substance is a white powder with a melting point of 177-182° C. and water solubility of >2000 mg/ml.

Data set [2] has as its system ME/CFS patients. The experiment in a line: FibroFatigue scale (FF) total score, phase II clinical study. The format is in vivo, human. An excerpt:
As used herein, the term “FF-scale” or “FF” refers to the FibroFatigue scale also known as the fibromyalgia and chronic fatigue syndrome rating scale described in by Zachrisson and coworkers (Zachrisson O, et al, (2002) J Psychosom Res Jun; 52(6):501-9). The FibroFatigue scale is an observer's rating scale with 12 items measuring pain, muscular tension, fatigue, concentration difficulties, failing memory, irritability, sadness, sleep disturbances, and autonomic disturbances and irritable bowel, headache and subjective experience of infection. […] Circular coated tablets for oral use of 15 mg and matching placebos was used. The tablets were administered by research nurses at the study site. The tablets were circular coated tablets for oral use containing 15 mg OSU6162. Matching placebos were used. The start dose was 15 mg OSU6162 twice daily (before breakfast and lunch) during 1 week with dose increase up to 30 mg twice daily during the following week. Additionally, the clinical effect was evaluated using the FF-scale, The Beck/BDI scale, VAS pain scale and with neuropsychological tests. To examine the effect of treatment and concomitant use of an antidepressant, antidepressant was included as a fixed factor in the analyses. […] Outcome targets FF, MFS and BDI were measured.

The test system of data set [3] is ME/CFS patients. Description: Trail making test B (TMT B). Format: in vivo, human. On the procedure: Next, patients were evaluated using a neuropsychological test. 61 patients were included in a neuropsychological examination. All subjects were tested once in connection with the randomization with the BNIS neuropsychological screening test. 20-30 minutes was required for this test. With the purpose of measuring the cognitive effects of the OSU6162 treatment six more tests were distributed at a first occasion before the initiation of treatment and at a second occasion after the treatment was completed. These tests required 20 minutes each. All tests were performed by a neuropsychologist. […] The subject follows a mental track and the test requires the ability to handle more than one stimulus at a time, as well as flexibility in shifting between different activities. It has a high sensitivity for brain dysfunction and is regarded to be related to prefrontal functioning.

Data set [4] concerns ME/CFS patients. Description: Clinical Global Impression of Change (CGI-C), phase II clinical study. The format is in vivo, human. The following applies: for patients exhibiting improved CGI-C values: entire population. On the procedure:
As used herein “Clinical Global Impression of Change” (CGI-C) (also known as Clinical Global Impression—Improvement (CGI-I)) scale is a 7 point scale that requires the clinician to assess how much the patient's illness has improved or worsened relative to a baseline state at the beginning of the intervention. […] Circular coated tablets for oral use of 15 mg and matching placebos was used. The tablets were administered by research nurses at the study site. The tablets were circular coated tablets for oral use containing 15 mg OSU6162. Matching placebos were used. The start dose was 15 mg OSU6162 twice daily (before breakfast and lunch) during 1 week with dose increase up to 30 mg twice daily during the following week. Efficacy was measured according to ratings using the self-assessment questionnaire for mental fatigue and related symptoms (MFS) after neurological disorders and injuries (Johansson et al, supra). Another primary endpoint was the result of the rating by the Clinical Global Impression of Change (Guy, supra), which rating was made by the doctor in charge of the patient. CGI-C scores range from 1 (very much improved) through to 7 (very much worse). Clinical Global Impression of Change (CGI-C) was evaluated by the clinician for each patient.

Where [5] appears, read: patients not on antidepressant therapy, post hoc comparison.

Where only a bound is given, the exact number is not on record here.

In the case of `CCCN1CCC[C@@H](c2cccc(S(C)(=O)=O)c2)C1.Cl` [OSU6162, (3S)-3-[3-(methylsulfonyl)-phenyl]-1-propylpiperidine hydrochloride], in the data set with ME/CFS patients [1] (2-way ANOVA, F1,60=3.997, p=0.050), the “MFS overall group difference between OSU6162 and placebo” value is on record as “borderline significant trend”. The “MFS interaction between treatment with OSU6162 and antidepressant over time” value in the data set with ME/CFS patients [1] (3-way ANOVA week*treatm*antidepr, F3,180=2.755, p=0.044) is recorded as “statistically significant 3-way interactions”. Moreover, the “MFS overall difference between OSU6162 and placebo” value in the data set on ME/CFS patients [1] (3-way analysis with antidepressant as fixed factor, F1,60=3.578, p=0.063) was “tendency to an overall difference”. The “MFS difference between OSU6162 treated and placebo treated patients” value in the data set with ME/CFS patients [1] (setting [5]) was “No difference”. Further, the “MFS change from week 0, difference OSU6162 vs placebo (95% CI)” value with ME/CFS patients [1] (patients on stable antidepressant therapy, after one week of treatment, F1,56=5.915, p=0.018, Bonferroni) is reported as −4.82 (−8.79 to −0.85). Moreover, the solubility in “water solubility” is more than 2000 mg/mL. The “FF main effect of treatment” value in the data set on ME/CFS patients [2] (2-way ANOVA, OSU6162 vs placebo) is given as “None”. Further, the “FF interaction between treatment with OSU6162 and antidepressant over time” value in the data set with ME/CFS patients [2] (3-way ANOVA week*treatm*antidepr, F3,180=6.785, p=0.0002) is “statistically significant 3-way interactions”. Further, the “FF difference between OSU6162 treated and placebo treated patients” value with ME/CFS patients [2] (setting [5]) is given as “No difference”. Moreover, the “FF change from week 0, difference OSU6162 vs placebo (95% confidence interval)” value in the data set with ME/CFS patients [2] (patients on stable antidepressant therapy, after one week of treatment, F1,56=6.320, p=0.015, Bonferroni) is −7.23 (−13.1 to −1.48). Moreover, in the data set on ME/CFS patients [3] (after treatment), the TMT B, max worked out at 145 s; the “TMT B, mean” value is listed as 61.2; the “TMT B, median” value came to 29; the “TMT B, min” value was determined as 31. In the data set with ME/CFS patients [3] (before and after treatment), the “TMT B difference between OSU6162 and placebo groups” value is recorded as “No significant differences”. Moreover, in the data set on ME/CFS patients [3] (before treatment), the TMT B, max turned out to be 134 s; the “TMT B, mean” value turned out to be 71.7; the “TMT B, median” value worked out at 32; the “TMT B, min” value stood at 44. Further, the “TMT B, Difference” value in the data set on ME/CFS patients [3] (before vs after treatment) worked out at 10. Also, the “patients exhibiting improved CGI-C values” in the data set on ME/CFS patients [4] (after one week of treatment (15 mg twice daily, oral), 13 of 30) is on record as 43%. In the data set on ME/CFS patients [4] (after two weeks of treatment (30 mg twice daily in week 2, oral), 17 of 30), the “patients exhibiting improved CGI-C values” is on record as 57%. The “difference in CGI-C between treatment groups (OSU6162 vs placebo)” value with ME/CFS patients [4] (entire patient population) is “no significant difference”. Besides, the “CGI-C improvement vs placebo” value in the data set with ME/CFS patients [4] (subgroup receiving concomitant antidepressant treatment, after one week, Mann-Whitney U-test p=0.0524) is reported as “clear tendency after one week for a greater improvement”.

One may read the solubility as the concentration that dissolves in the medium under given conditions. Read a high solubility as much dissolved substance.
